From publication PMC7275043 (Nature Communications, 2020) come the findings set out here.

For data set [1] the following is noted: mouse, in vivo, iv, 10 mg/kg.
Data set [2] deals with influenza B/Mem. Also on record: species or system BALB/c mice. The note with it: mouse, in vivo, iv, 2.5 mg/kg.
Data set [3] deals with influenza B/Mem. It is filed as cell-based, influenza B/Memphis/12/97.
The subject of data set [4] is ZIKV (African strain MR766). Kind of data set: microbe, parasite or virus in culture. It is filed as cell-based, Zika virus.
Data set [5] concerns influenza B/Mem. It is filed as cell-based, influenza B/Memphis/12/97. The source holds these as a separate data set.
In data set [6] the target is mouse PrP^C in L929 15.9 and CAD5 cells (Mus musculus, UniProt P04925).
The test system of data set [7] is influenza B virus strains (B/Mem, B/Wis, B/Bris). It is filed as cell-based.
Data set [8] deals with PB2CB from influenza B/Mem (PB2IBV). It is filed as biochemical.
For data set [9], the target named is PB2 (FLAG-tagged, A/WSN-FLAG) (Influenza A virus, UniProt P03427). It is filed as cell-based, influenza A/WSN/1933(H1N1).
For data set [10], the system named is influenza A strains (H1N1, H3N2, H3N3, H3N8, H5N1). It is filed as cell-based.
In data set [11] the test system is influenza A strains: H1N1 strain A/PR8 and H5N1 strain A/NIBRG-14. It is filed as cell-based.
Data set [12] deals with the molecule itself.

PB2 (FLAG-tagged, A/WSN-FLAG), sequence (P03427 whole entry, looked up): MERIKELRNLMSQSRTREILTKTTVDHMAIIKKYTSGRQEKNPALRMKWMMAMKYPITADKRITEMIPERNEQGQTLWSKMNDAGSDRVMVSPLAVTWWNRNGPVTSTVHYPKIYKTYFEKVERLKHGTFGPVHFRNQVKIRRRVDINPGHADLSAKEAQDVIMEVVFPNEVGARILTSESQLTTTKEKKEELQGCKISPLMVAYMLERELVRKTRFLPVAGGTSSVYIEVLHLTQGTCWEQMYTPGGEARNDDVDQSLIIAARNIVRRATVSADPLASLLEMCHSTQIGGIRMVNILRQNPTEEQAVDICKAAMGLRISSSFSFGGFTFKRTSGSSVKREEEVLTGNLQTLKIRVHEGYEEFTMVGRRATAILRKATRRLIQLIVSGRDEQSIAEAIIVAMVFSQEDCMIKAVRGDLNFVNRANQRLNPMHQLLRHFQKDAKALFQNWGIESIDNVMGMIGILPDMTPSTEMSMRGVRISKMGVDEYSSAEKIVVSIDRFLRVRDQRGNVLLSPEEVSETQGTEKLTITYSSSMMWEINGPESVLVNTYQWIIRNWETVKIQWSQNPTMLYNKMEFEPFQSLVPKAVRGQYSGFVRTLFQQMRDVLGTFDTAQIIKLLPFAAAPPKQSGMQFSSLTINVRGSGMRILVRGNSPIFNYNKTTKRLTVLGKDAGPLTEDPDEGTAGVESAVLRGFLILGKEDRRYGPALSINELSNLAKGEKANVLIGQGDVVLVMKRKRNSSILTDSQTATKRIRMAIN
mouse PrP^C in L929 15.9 and CAD5 cells, sequence (P04925 23-230 limits assumed): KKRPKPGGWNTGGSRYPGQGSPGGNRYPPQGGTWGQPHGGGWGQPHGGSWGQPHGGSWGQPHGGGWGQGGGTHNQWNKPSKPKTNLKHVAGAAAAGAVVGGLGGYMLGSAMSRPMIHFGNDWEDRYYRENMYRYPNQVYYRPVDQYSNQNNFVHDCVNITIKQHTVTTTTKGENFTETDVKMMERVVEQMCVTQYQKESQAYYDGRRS

Regarding Ac-WDLIQLIVSDGSDLIQLIVSD-NH2 [12B], the “aspecific toxic effects on MDCK cells” value with MDCK cells was “no aspecific toxic effects were observed”. Further, the “blood analysis and histopathological evaluation of all major organs” value in [1] was “revealed no abnormalities”. For the same molecule, the “aspecific toxic effects on HEK 293T cells” value in the data set with HEK 293T cells is “no aspecific toxic effects were observed”. For the same molecule, the “influenza B replication in the murine infection model (viral load in lungs)” value with influenza B/Mem [2] was “not affected”. Further, the “protection against cytopathic effects of influenza B” value in the data set on influenza B/Mem [3] is recorded as “no protection against cytopathic effects”. For the same molecule, in [4], the “interference with ZIKV replication” value was “no interference with ZIKV replication is observed”. In addition, the “influenza B replication in multicycle replication assay” value in the data set with influenza B/Mem [5] is on record as “unaffected”. Also, the “conversion of PrP to the aggregated prion state (PrP^SC)” value in data set [6] is listed as “incapable to convert PrP”. Further, in data set [7], the “antiviral activity in time of addition assays and pretreatment of influenza B virion particles” value is reported as “showed no antiviral activity”; the “effect on replication of influenza B virus strains” value is recorded as “did not interfere with the replication”. In data set [8], the “effect on aggregation or conformational stability of PB2IBV (Th-T, ANS)” value was “showed no effect on the aggregation or conformational stability”. Also, the “soluble PB2 in infected cells” value in data set [9] was “reduction of soluble PB2”. The “antiviral activity on influenza A strains with APR polymorphisms” value in data set [10] is recorded as “retains activity against all these influenza A strains”.

Turning to `C[C@@]1(O)[C@H](O)[C@@H](CO)O[C@H]1n1ccc2c(N)ncnc21` [7-DMA, 7-deaza-2′-C-methyladenosine, reference compound], the “aspecific toxicity on the mammalian host cell” value in the data set with Vero E6 cells is on record as “did not originate from aspecific toxicity”. Besides, the 50% inhibitory concentration (IC50) (in general, the point on the concentration scale where inhibition reaches its midpoint) in data set [4] (Zika virus, Vero C1008, 48 h, n = 3, read-out: IC50, fraction of ZIKV-infected cells) was found to be 4.74 ± 0.31 µM.

As to “Ac-RLIQLIVSRPPRLIQLIVSR-NH2 [compound 12]”, the “aspecific cytotoxic effects on MDCK cells” value in the data set with MDCK cells is listed as “did not originate from aspecific cytotoxic effects”. Moreover, in [11], the “amount of newly produced virus (TCID50 titration), antiviral screen” value is listed as “showed the most pronounced effect”.

B1: peptide 12B (peptide)
peptide: WDLIQLIVSDGSDLIQLIVSD
notes: also called amyloid peptide 12B; synthetic amyloid 12B; source: synthetic peptide
As to B1, in data set [12], the binding result was “binds”.
